Measurements from patent publication US20030065030A1, “Autonomic controlling agents and health drinks and foods” (priority 2001, published 2003).
Like-named read-outs stand apart in the source and are kept apart here.

How the values were obtained:
[1] = tested on: STZ diabetic rats; assay: anti-hyperglycemia in the STZ diabetic rats undergoing the oral glucose tolerance test; assay type: in vivo, rat
Experimental: Wistar male rats (initial weight, about 250 g) were used. They were housed in a room illuminated with an incandescent light of 80 luxes on the average for 12 hours with free access to feed, and adapted to the environment at least 10 days. Three days before the experiment, rats under anesthesia with pentobarbital (35 mg/kg body weight, intraperitoneal administration) received the insertion of a cardiac catheter comprising a silastic tubing (Dow Corning, Midland, Mich.) and a polyethylene tubing (Clay Adams, Parsippany, N.J.) into the right atrium and a polyethylene tubing into the right lateral cerebral ventricle (LCV).
Then, the STZ (streptozotocin) diabetic rats were created according to the report by Portha et al. (Diabetes 30:64-69, 1981). Streptozotocin (STZ, manufactured by Sigma) dissolved in 0.05 M citric acid solution (pH 4.5) at a concentration of […] was intraperitoneally administered at 60 mg/kg body weight. To the STZ diabetic rats thus created, an aqueous solution of glucose dissolved at 0.5 g/ml was orally administered at 1 ml (0.5 g) per animal (oral glucose load). Simultaneously with the glucose load, carnosine dissolved in physiological saline was administered to the rats intracranially (0.01 ml) or intraperitoneally (0.1 ml).
The oral administration employed a sonde, and the intracranially administration was performed via a LVC polyethylene tube and the intraperitoneal administration employed an injection syringe and a needle. The control rats received physiological saline instead of carnosine, and an artificial cerebrospinal fluid instead of 2DG, each at the same amount. Before and at 15, 30, 60, and 90 minutes after the oral administration of glucose, 300 μl of blood was taken via the cardiac catheter and the glucose concentrations in the plasma (blood glucose levels) were determined. The glucose concentration in the plasma at the time of carnosine administration was calculated as a ratio (%) relative to the plasma glucose concentration before glucose administration set at 100. Four or five rats were used in the experiment. Data were tested with ANOVA (p<0.05) and were expressed as mean +/− standard error.

[2] = tested on: autonomic nervous system in humans; assay: autonomic nerve activity in humans by ECG R-R interval power spectral analysis; assay type: in vivo, human; conditions: for mean promotion ratio of the overall autonomic nerve activity / mean promotion ratio of the parasympathetic nerve activity: responding subjects
Experimental: The resting ECG of the subjects was measured for 5 minutes, and ECG was measured for 5 minutes at 30 minutes and 60 minutes after drinking the test sample, respectively. In order to avoid influences by changes in respiration, ECG was measured when the subjects were forced to respire at 15 respirations per minute. The intervals between R-waves (R-R intervals) of the ECG were determined, and were subjected to a power spectral analysis according to the program prepared by Moritani et al. (J. Sport Med. Sci. 7:31-39, 1993). For cycle components, in conformity to the classification criteria of the Cardiology society in Europe and the USA (Circulation 93:1043-1065, 1996), heart rate variation was divided into the low frequency (0.03-0.15 Hz) and the high frequency (0.15-0.4 Hz).
Carnosine was weighed out on a chartula at 0.04 mg, 0.2 mg, 1 mg, 5 mg, and 25 mg/capita. For 0.2 mg, one mg of a 1:4 mixture of carnosine and starch powder (⅕ dilution) was weighed out. For 0.04 mg, one mg of a 1:4 mixture of carnosine and starch powder that further mixed with the starch powder at 1:4 ( 1/25 dilution) was weighed out. Carnosine was taken by licking the one weighed out on chartula.
There were 8 subjects, 21-51 years old (33.0 +/− 11.95 years old) and weighing 54-73.5 kg (64.3 +/− 7.01 kg), and among them, the experiments of the 0.04 mg and the 0.2 mg were performed on six subjects, the experiments of the 1 mg and the 5 mg were performed on 8 subjects, and the experiment of the 25 mg was performed on 5 subjects.

[3] = tested on: carnosine-degrading enzyme; assay: carnosine-degrading enzyme activity in the plasma of rats; assay type: in vitro ADME
[4] = cited from earlier work
[5] = target: T1, carnosine-degrading enzyme (Homo sapiens, UniProt Q96KN2); conditions: cited from earlier work
T1 construct: host or cells: human blood
T1 sequence (Q96KN2 27-507 limits assumed): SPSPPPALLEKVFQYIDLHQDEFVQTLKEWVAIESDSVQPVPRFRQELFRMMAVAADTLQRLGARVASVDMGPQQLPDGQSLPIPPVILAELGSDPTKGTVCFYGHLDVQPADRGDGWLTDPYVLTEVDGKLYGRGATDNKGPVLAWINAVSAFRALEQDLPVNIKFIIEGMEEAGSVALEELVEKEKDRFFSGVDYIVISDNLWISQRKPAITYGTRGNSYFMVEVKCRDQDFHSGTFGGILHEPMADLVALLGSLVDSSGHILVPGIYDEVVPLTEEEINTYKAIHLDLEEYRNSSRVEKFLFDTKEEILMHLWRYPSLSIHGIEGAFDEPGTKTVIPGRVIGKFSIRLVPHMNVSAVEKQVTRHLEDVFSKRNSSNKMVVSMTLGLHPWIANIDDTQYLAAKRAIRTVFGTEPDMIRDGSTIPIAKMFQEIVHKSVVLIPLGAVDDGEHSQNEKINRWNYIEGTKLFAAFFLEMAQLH

[6] = 0.04 mg oral ingestion, the one responding subject

With `NCCC(=O)N[C@@H](Cc1cnc[nH]1)C(=O)O` [carnosine, β-alanyl-L-histidine] the “suppression rate of increase in blood glucose by oral glucose load” value (“suppression rate of increase” below) ([1]; 10 ng intracranial, 15 minutes) was 14.5%, the “suppression rate of increase” value ([1]; 10 ng intracranial, 30 minutes) was 17.3% and the “suppression rate of increase” value ([1]; 10 ng intracranial, 60 minutes) was 14.7%. The “suppression rate of increase” value ([1]; 10 ng intracranial, 90 minutes) was 11.4%, the “suppression rate of increase” value ([1]; 100 ng intraperitoneal, 60 minutes) was 14.3% and the “suppression rate of increase” value ([1]; 100 ng intraperitoneal, 90 minutes) was 12.4%. For the same compound, the “ratio of those who exhibited promotion (more than 200% of the previous value of the parasympathetic nerve activity)” value ([2]; 0.04 mg oral ingestion) was 16.7%, the “promotion ratio of the overall autonomic nerve activity” value [2, 6] was 195% and the “promotion ratio of the parasympathetic nerve activity” value [2, 6] was 249%. The “ratio of those who exhibited promotion (more than 200% of the previous value of the parasympathetic nerve activity)” value ([2]; 0.2 mg oral ingestion) was 66.7%, the “mean promotion ratio of the overall autonomic nerve activity” value ([2]; 0.2 mg oral ingestion) was 329% and the “mean promotion ratio of the parasympathetic nerve activity” value ([2]; 0.2 mg oral ingestion) was 436%. For the same compound, the “ratio of those who exhibited promotion (more than 200% of the previous value of the parasympathetic nerve activity)” value ([2]; 1 mg oral ingestion) was 37.5%, the “mean promotion ratio of the overall autonomic nerve activity” value ([2]; 1 mg oral ingestion) was 190% and the “mean promotion ratio of the parasympathetic nerve activity” value ([2]; 1 mg oral ingestion) was 259%. For the same compound, the “ratio of those who exhibited promotion (more than 200% of the previous value of the parasympathetic nerve activity)” value ([2]; 5 mg oral ingestion) was 25.0%, the “mean promotion ratio of the overall autonomic nerve activity” value ([2]; 5 mg oral ingestion) was 410% and the “mean promotion ratio of the parasympathetic nerve activity” value ([2]; 5 mg oral ingestion) was 472%. For the same compound, the “ratio of those who exhibited promotion (more than 200% of the previous value of the parasympathetic nerve activity)” value ([2]; 25 mg oral ingestion) was 0%, the carnosine-degrading enzyme activity [3] was 0.01 to 0.04 µmol/h/mL and the “absorptivity relative to carnosine alone” value ([4]; administered to the jejunum of mice in combination with L-alanine) was “more than two-fold higher”. For the same compound, the “absorptivity relative to carnosine alone” value ([4]; administered to the jejunum of mice with β-alanine) was “more than tripled”, the oral absorptivity ([4]; mice) was 30-70% and the “activity of a carnosine-degrading enzyme in the blood” value [5] was 2 to 7 µmol/h/mL.
